The values that follow are results of earlier work, collected in US20130217673A1, “MIXED MONOAMINE REUPTAKE INHIBITOR IN A BIODEGRADABLE POLYMER CARRIER” (Warsaw Orthopedic, Inc, priority 2012, published 2013).

This data set has as its system nociception. The settings on record: compared with bupivacaine.

Molecules are shown by their SMILES.

As for `CN(C)CCC=C1c2ccccc2CCc2ccccc21` [amitryptyline, 3-(10,11-dihydro-5H-dibenzo[a,d]cycloheptene-5-ylidene)-N,N-dimethylpropan-1-amine], the “duration of the effect in blocking nociception” value is given as “the effects last longer” and the “potency in blocking nociception relative to bupivacaine” value was “at least three times more potent than bupivacaine”.
For the compound `CN(C)CCC=C1c2ccccc2COc2ccccc21` [doxepin], the “duration of the effect in blocking nociception” value was “the effects last longer” and the “potency in blocking nociception relative to bupivacaine” value is “at least three times more potent than bupivacaine”.
